Measurements as given in PMC9952374, “De Novo Design of Imidazopyridine-Tethered Pyrazolines That Target Phosphorylation of STAT3 in Human Breast Cancer Cells” (Bioengineering, 2023).

What was measured:
MCF-7 cells = assay: Alamar Blue cell viability assay, MCF-7; type: cell-based, human; conditions: MCF-7 cell viability
Text: (§1) The goal herein was to assess the ability of imidazopyridine-tethered pyrazolines to inhibit cell viability in mammary carcinoma cells (using the Alamar Blue assay), since pyridine-fused pyrazoles were previously shown to inhibit cell viability in various breast cancer cells. […] The low chemical stability of thio-urea-based compounds may account for the inactivity of most thiourea-conjugated pyrazolines (excluding 4g) against TNBC cells.
(§2) MCF-7 cells were procured from Procell Life Science and Technology Co. LTD, Wuhan, China. Human breast cancer T47D, BT474, and SK-BR-3 cells were obtained from American Type Culture Collection (Washington, DC, NW, USA). Cells (2000) were cultured in MEM or Leibovitz’s L-15 medium enriched with 2% FBS and maintained in a humidified atmosphere of 5% CO2 at 37 °C. A stock solution of DMSO-dissolved compounds was prepared, and this solution was diluted with culture medium as required. MCF-7 Cells (4 × 10^3) were cultured in 96-well plates for 12 h and then treated for 72 h with compounds at concentrations of […]. Using Alamar Blue, the compounds were evaluated for their inhibitory effects
Figure 2 Inhibitory effect of compounds 3f (A), 3e (B), 4g (C), and 3g (D) on the viability of MCF-7 cells. MCF-7 cells were treated with various concentrations of 2-pyrazolines for 72 h and the viability of cells was analyzed by Alamar Blue assays. The results are presented as mean ± S.E.M. of triplicate determinations.

T47D cells = assay: Alamar Blue cell viability assay, T47D; type: cell-based, human; conditions: T47D cell viability, Alamar Blue
Text: as §1, §2

BT-474 cells = assay: Alamar Blue cell viability assay, BT-474; type: cell-based, human; conditions: BT-474 cell viability, Alamar Blue
Text: as §1, §2

SK-BR-3 cells = assay: Alamar Blue cell viability assay, SK-BR-3; type: cell-based, human; conditions: SK-BR-3 cell viability
Text: as §1, §2

MCF-10A cells = assay: Alamar Blue cell viability assay, normal MCF-10A; type: cell-based; conditions: normal MCF-10A cell viability
TNBC cells = assay: Effect against TNBC cells; type: cell-based; conditions: in words
Text: as §1

Row | Compound | IC50 (MCF-7 cells; Homo sapiens, MCF7, 72 h) [µM] | IC50 (T47D cells; Homo sapiens) [µM] | IC50 (BT-474 cells; Homo sapiens) [µM] | IC50 (SK-BR-3 cells; Homo sapiens) [µM] | IC50 (MCF-10A cells; Homo sapiens) [µM] | melting point [°C] | effect against TNBC cells (TNBC cells) | IC50 (MCF-7 cells; 72 h) [µM] | IC50 (T47D cells) [µM] | IC50 (BT-474 cells) [µM] | IC50 (SK-BR-3 cells) [µM] | IC50 (MCF-10A cells) [µM]
1 | CC(=O)N1N=C(c2c(C)nc3ccc(C)cn23)CC1c1cccc([N+](=O)[O-])c1 (stereo not shown) [Compound 2, 1-(3-(2,6-Dimethylimidazo[1,2-a]pyridin-3-yl)-5-(3-nitrophenyl)-4,5-dihydro-1H-pyrazol-1-yl)ethanone] | > 100 | > 100 | 97.8 ± 1.76 | > 100 | > 100 | 166 to 168 |  |  |  |  |  | 
2 | Cc1ccc2nc(C)c(C3=NN(C(=O)CN4CCC(=O)CC4)C(c4cccc([N+](=O)[O-])c4)C3)n2c1 (stereo not shown) [Compound 3a, 1-(2-(3-(2,6-Dimethylimidazo[1,2-a]pyridin-3-yl)-5-(3-nitrophenyl)-4,5-dihydro-1H-pyrazol-1-yl)-2-oxoethyl)piperidin-4-one] | 22.8 ± 1.36 | 23.3 ± 1.28 | 4.11 ± 0.41 | > 100 | > 100 | 170 to 172 |  |  |  |  |  | 
3 | Cc1ccc2nc(C)c(C3=NN(C(=O)CN4CCN(C(=O)OC(C)(C)C)CC4)C(c4cccc([N+](=O)[O-])c4)C3)n2c1 (stereo not shown) [Compound 3b, Tert-butyl-4-(2-(3-(2,6-dimethylimidazo[1,2-a]pyridin-3-yl)-5-(3-nitrophenyl)-4,5-dihydro-1H-pyrazol-1-yl)-2-oxoethyl)piperazine-1-carboxylate] | 22.3 ± 1.35 | 15.2 ± 1.13 | 21.3 ± 1.32 | 28.3 ± 1.34 | > 100 | 166 to 168 |  |  |  |  |  | 
4 | Cc1ccc2nc(C)c(C3=NN(C(=O)CN4CCNCC4)C(c4cccc([N+](=O)[O-])c4)C3)n2c1 (stereo not shown) [Compound 3c, 1-(3-(2,6-Dimethylimidazo[1,2-a]pyridin-3-yl)-5-(3-nitrophenyl)-4,5-dihydro-1H-pyrazol-1-yl)-2-(piperazin-1-yl)ethanone] | 29.3 ± 1.47 | 40 ± 1.49 | 26.8 ± 1.37 | 95.2 ± 1.79 | > 100 | 176 to 178 |  |  |  |  |  | 
5 | CC(=O)N1CCN(CC(=O)N2N=C(c3c(C)nc4ccc(C)cn34)CC2c2cccc([N+](=O)[O-])c2)CC1 (stereo not shown) [Compound 3d, 2-(4-Acetylpiperazin-1-yl)-1-(3-(2,6-dimethylimidazo[1,2-a]pyridin-3-yl)-5-(3-nitrophenyl)-4,5-dihydro-1H-pyrazol-1-yl)ethanone] | 21 ± 1.32 | > 100 | 8.04 ± 0.47 | 32.1 ± 1.46 | > 100 | 208 to 210 |  |  |  |  |  | 
6 | Cc1ccc2nc(C)c(C3=NN(C(=O)CN4CCN(c5ccc(Cl)cc5)CC4)C(c4cccc([N+](=O)[O-])c4)C3)n2c1 (stereo not shown) [Compound 3e, 2-(4-(4-Chlorophenyl)piperazin-1-yl)-1-(3-(2,6-dimethylimidazo[1,2-a]pyridin-3-yl)-5-(3-nitrophenyl)-4,5-dihydro-1H-pyrazol-1-yl)ethanone] | 13.2 ± 1.12 | 29.9 ± 1.05 | 17.6 ± 0.87 | 39.1 ± 1.46 | 38.3 ± 1.44 | 180 to 182 |  |  |  |  |  | 
7 | Cc1ccc2nc(C)c(C3=NN(C(=O)CN4CCN(c5ccc(Cl)cc5F)CC4)C(c4cccc([N+](=O)[O-])c4)C3)n2c1 (stereo not shown) [Compound 3g, 2-(4-(4-Chloro-2-fluorophenyl)piperazin-1-yl)-1-(3-(2,6-dimethylimidazo[1,2-a]pyridin-3-yl)-5-(3-nitrophenyl)-4,5-dihydro-1H-pyrazol-1-yl)ethanone] | 19.4 ± 1.29 | 86.5 ± 1.95 | 63.2 ± 1.75 | 100 ± 1.98 | 8.69 ± 0.69 | 196 to 198 |  |  |  |  |  | 
8 | Cc1ccc2nc(C)c(C3=NN(C(=O)CN4CCN(c5ccc(F)c(F)c5)CC4)C(c4cccc([N+](=O)[O-])c4)C3)n2c1 (stereo not shown) [Compound 3h, 2-(4-(3,4-Difluorophenyl)piperazin-1-yl)-1-(3-(2,6-dimethylimidazo[1,2-a]pyridin-3-yl)-5-(3-nitrophenyl)-4,5-dihydro-1H-pyrazol-1-yl)ethanone] | 19.6 ± 1.29 | 12.5 ± 1.01 | 3.06 ± 0.32 | 38.8 ± 1.42 | 6.27 ± 0.26 | 192 to 194 | significant effect |  |  |  |  | 
9 | Cc1ccc2nc(C)c(C3=NN(C(=O)CN4CCN(c5ccccc5F)CC4)C(c4cccc([N+](=O)[O-])c4)C3)n2c1 (stereo not shown) [Compound 3i, 1-(3-(2,6-Dimethylimidazo[1,2-a]pyridin-3-yl)-5-(3-nitrophenyl)-4,5-dihydro-1H-pyrazol-1-yl)-2-(4-(2-fluorophenyl)piperazin-1-yl)ethanone] | 63.7 ± 1.8 | > 100 | > 100 | > 100 | > 100 | 160 to 162 |  |  |  |  |  | 
10 | Cc1ccc2nc(C)c(C3=NN(C(=S)Nc4ccccc4)C(c4cccc([N+](=O)[O-])c4)C3)n2c1 (stereo not shown) [Compound 4a, 3-(2,6-Dimethylimidazo[1,2-a]pyridin-3-yl)-5-(3-nitrophenyl)-N-phenyl-4,5-dihydro-1H-pyrazoline-1-carbothioamide] |  |  |  |  |  |  |  | 81.4 ± 1.91 | > 100 | > 100 | > 100 | > 100
11 | Cc1ccc2nc(C)c(C3=NN(C(=S)NC4CCCCC4)C(c4cccc([N+](=O)[O-])c4)C3)n2c1 (stereo not shown) [Compound 4c, N-Cyclohexyl-3-(2,6-dimethylimidazo[1,2-a]pyridin-3-yl)-5-(3-nitrophenyl)-4,5-dihydro-1H-pyrazoline-1-carbothioamide] |  |  |  |  |  |  |  | 46.1 ± 1.66 | > 100 | 52.8 ± 1.54 | > 100 | > 100
12 | Cc1ccc2nc(C)c(C3=NN(C(=S)Nc4cccc(Cl)c4)C(c4cccc([N+](=O)[O-])c4)C3)n2c1 (stereo not shown) [Compound 4e, N-(3-Chlorophenyl)-3-(2,6-dimethylimidazo[1,2-a]pyridin-3-yl)-5-(3-nitrophenyl)-4,5-dihydro-1H-pyrazoline-1-carbothioamide] |  |  |  |  |  |  |  | > 100 | > 100 | > 100 | > 100 | > 100
13 | Cc1ccc(NC(=S)N2N=C(c3c(C)nc4ccc(C)cn34)CC2c2cccc([N+](=O)[O-])c2)cc1 (stereo not shown) [Compound 4f, 3-(2,6-Dimethylimidazo[1,2-a]pyridin-3-yl)-5-(3-nitrophenyl)-N-(p-tolyl)-4,5-dihydro-1H-pyrazoline-1-carbothioamide] |  |  |  |  |  |  |  | 56.9 ± 1.39 | > 100 | > 100 | > 100 | > 100
14 | Cc1ccc2nc(C)c(C3=NN(C(=S)Nc4cc(C(F)(F)F)cc(C(F)(F)F)c4)[C@@H](c4cccc([N+](=O)[O-])c4)C3)n2c1 [Compound 4g, N-(3,5-Bis(trifluoromethyl)phenyl)-3-(2,6-dimethylimidazo[1,2-a]pyridin-3-yl)-5-(3-nitrophenyl)-4,5-dihydro-1H-pyrazoline-1-carbothioamide] | 10.9 ± 1.01 | > 100 | > 100 | > 100 | > 100 | 230 to 232 |  |  |  |  |  | 
15 | N-(4-Chlorophenyl)-3-(2,6-dimethylimidazo[1,2-a]pyridin-3-yl)-5-(3-nitrophenyl)-4,5-dihydro-1H-pyrazoline-1-carbothioamide [Compound 4d] |  |  |  |  |  |  |  | > 100 | > 100 | > 100 | > 100 | > 100
16 | N-Butyl-3-(2,6-dimethylimidazo[1,2-a]pyridin-3-yl)-5-(3-nitrophenyl)-4,5-dihydro-1H-pyrazoline-1-carbothioamide [Compound 4h] |  |  |  |  |  |  |  | > 100 | 54.4 ± 1.68 | > 100 | > 100 | 90.6 ± 1.98
